PubChem BioAssay AID248 (DTP/NCI, 2004)
Values joined by “and” are separate entries in the source; they are usually repeats but may differ in a detail not shown here. Identical values can stand only once. Inconclusive results and toxic doses are left out.

Tested on: L1210 leukemia ip in BDF1 mice, survival T/C
Experiment: NCI In Vivo Anticancer Drug Screen. Data for tumor model L1210 Leukemia (intraperitoneal) in B6D2F1 (BDF1) mice
Settings: endpoint: mean survival time, higher = longer survival
How it was run: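 Tumor cells were implanted, animals were treated, and survival was followed. The result divides the treated measurement by the vehicle-control measurement.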

[1] = dose: 100.0 mg/kg/injection, schedule: Q01DX009 (ip), vehicle: Klucel (hydroxypropylcellulose) (HPC)
[2] = dose: 100.0 mg/kg/injection, schedule: Q04DX003 (ip), vehicle: Klucel (hydroxypropylcellulose) (HPC)
[3] = dose: 200.0 mg/kg/injection, schedule: Q01DX009 (ip), vehicle: Klucel (hydroxypropylcellulose) (HPC)
[4] = dose: 200.0 mg/kg/injection, schedule: Q04DX003 (ip), vehicle: Klucel (hydroxypropylcellulose) (HPC)
[5] = dose: 400.0 mg/kg/injection, schedule: Q01DX009 (ip), vehicle: Klucel (hydroxypropylcellulose) (HPC)
[6] = dose: 400.0 mg/kg/injection, schedule: Q04DX003 (ip), vehicle: Klucel (hydroxypropylcellulose) (HPC)
[7] = dose: 50.0 mg/kg/injection, schedule: Q01DX009 (ip), vehicle: Klucel (hydroxypropylcellulose) (HPC)
[8] = dose: 100.0 mg/kg/injection, schedule: Q04DX002 (ip), vehicle: Klucel (hydroxypropylcellulose) (HPC)
[9] = dose: 200.0 mg/kg/injection, schedule: Q04DX002 (ip), vehicle: Klucel (hydroxypropylcellulose) (HPC)
[10] = dose: 400.0 mg/kg/injection, schedule: Q04DX002 (ip), vehicle: Klucel (hydroxypropylcellulose) (HPC)
[11] = dose: 50.0 mg/kg/injection, schedule: Q01DX009 (ip), vehicle: saline
[12] = dose: 100.0 mg/kg/injection, schedule: Q01DX009 (ip), vehicle: saline
[13] = dose: 100.0 mg/kg/injection, schedule: Q04DX003 (ip), vehicle: saline with Tween-80
[14] = dose: 200.0 mg/kg/injection, schedule: Q04DX003 (ip), vehicle: saline with Tween-80
[15] = dose: 400.0 mg/kg/injection, schedule: Q04DX003 (ip), vehicle: saline with Tween-80
[16] = dose: 100.0 mg/kg/injection, schedule: Q01DX009 (ip), vehicle: saline with Tween-80
[17] = dose: 200.0 mg/kg/injection, schedule: Q01DX009 (ip), vehicle: saline with Tween-80
[18] = dose: 25.0 mg/kg/injection, schedule: Q04DX002 (ip), vehicle: Klucel (hydroxypropylcellulose) (HPC)
[19] = dose: 100.0 mg/kg/injection, schedule: Q04DX003 (ip), vehicle: saline
[20] = dose: 100.0 mg/kg/injection, schedule: Q01DX001 (ip), vehicle: saline
[21] = dose: 200.0 mg/kg/injection, schedule: Q01DX001 (ip), vehicle: saline
[22] = dose: 400.0 mg/kg/injection, schedule: Q01DX001 (ip), vehicle: saline
[23] = dose: 400.0 mg/kg/injection, schedule: Q01DX009 (ip), vehicle: saline with Tween-80
[24] = dose: 75.0 mg/kg/injection, schedule: Q01DX001 (ip), vehicle: carboxymethylcellulose (CMC)
[25] = dose: 200.0 mg/kg/injection, schedule: Q01DX009 (ip), vehicle: saline
[26] = dose: 400.0 mg/kg/injection, schedule: Q01DX009 (ip), vehicle: saline
[27] = dose: 25.0 mg/kg/injection, schedule: Q04DX003 (ip), vehicle: saline
[28] = dose: 50.0 mg/kg/injection, schedule: Q04DX003 (ip), vehicle: saline
[29] = dose: 200.0 mg/kg/injection, schedule: Q04DX003 (ip), vehicle: saline
[30] = dose: 400.0 mg/kg/injection, schedule: Q04DX003 (ip), vehicle: saline

Compound: COC(=O)c1ccccc1NN=Nc1ccccc1[N+](=O)[O-]
- T/C [1]: 93 % of control
- T/C [2]: 97 % of control and 86 % of control
- T/C [3]: 88 % of control
- T/C [4]: 98 % of control and 89 % of control
- T/C [5]: 97 % of control
- T/C [6]: 95 % of control and 97 % of control

Compound: C=C(C)C(=O)CC(=O)C1CCc2cc(OC)ccc2C1=O (stereo not given)
- T/C (dose: 100.0 mg/kg/injection, schedule: Q01DX009 (ip), vehicle: saline sonified): 102 % of control
- T/C (dose: 200.0 mg/kg/injection, schedule: Q01DX009 (ip), vehicle: saline sonified): 96 % of control
- T/C (dose: 400.0 mg/kg/injection, schedule: Q01DX009 (ip), vehicle: saline sonified): 100 % of control

Compound: O=C1c2ccccc2C(=O)N1c1cccc([N+](=O)[O-])c1
- T/C [7]: 114 % of control
- T/C [1]: 90 % of control
- T/C [3]: 114 % of control

Compound: O=C1NC2C3CC(c4ccccc43)C12 (stereo not given)
- T/C [8]: 101 % of control
- T/C [9]: 108 % of control
- T/C [10]: 111 % of control

Compound: NCCO[Si](OCCN)(OCCN)OCCN
- T/C [11]: 93 % of control
- T/C [12]: 88 % of control

Compound: CC(=O)/C(C)=C\c1ccc(O)cc1
- T/C [13]: 91 % of control
- T/C [14]: 98 % of control
- T/C [15]: 102 % of control

Compound: CC(=O)NCCCCC(=O)c1ccccc1
- T/C [16]: 102 % of control
- T/C [17]: 100 % of control

Compound: CC([NH-])C(C)[NH-].[Cl][Pt+2][Cl] (stereo not given)
- T/C (dose: 3.1 mg/kg/injection, schedule: Q04DX002 (ip), vehicle: Klucel (hydroxypropylcellulose) (HPC)): 124 % of control
- T/C (dose: 6.25 mg/kg/injection, schedule: Q04DX002 (ip), vehicle: Klucel (hydroxypropylcellulose) (HPC)): 153 % of control
- T/C [18]: 92 % of control

Compound: CCC(=O)Nc1cc(Cl)ccc1OC
- T/C [1]: 94 % of control
- T/C [2]: 98 % of control
- T/C [3]: 100 % of control
- T/C [4]: 93 % of control
- T/C [5]: 93 % of control
- T/C [6]: 106 % of control

Compound: CC[n+]1ccc(/C=C\c2c(Cl)cccc2Cl)cc1
- T/C (dose: 12.5 mg/kg/injection, schedule: Q01DX009 (ip), vehicle: Klucel (hydroxypropylcellulose) (HPC)): 100 % of control
- T/C (dose: 25.0 mg/kg/injection, schedule: Q01DX009 (ip), vehicle: Klucel (hydroxypropylcellulose) (HPC)): 100 % of control
- T/C [2]: 100 % of control
- T/C [4]: 100 % of control
- T/C [6]: 112 % of control

Compound: O=C(O)C12CCC(CC1)C1CCC2CC1
- T/C (dose: 12.5 mg/kg/injection, schedule: Q04DX002 (ip), vehicle: Klucel (hydroxypropylcellulose) (HPC)): 101 % of control
- T/C [18]: 105 % of control
- T/C (dose: 50.0 mg/kg/injection, schedule: Q04DX002 (ip), vehicle: Klucel (hydroxypropylcellulose) (HPC)): 116 % of control

Compound: CCC[N+](CC)(CC)CCOC(=O)C1C2CC3OC(=O)C1C3C2 (stereo not given)
- T/C [19]: 101 % of control

Compound: CCOC(=O)C1(C(=O)OCC)C(C)CC(O)N1C(=O)c1ccccc1[N+](=O)[O-] (stereo not given)
- T/C (dose: 25.0 mg/kg/injection, schedule: Q04DX003 (ip), vehicle: Klucel (hydroxypropylcellulose) (HPC)): 100 % of control
- T/C (dose: 50.0 mg/kg/injection, schedule: Q04DX003 (ip), vehicle: Klucel (hydroxypropylcellulose) (HPC)): 91 % of control
- T/C [2]: 92 % of control

Compound: COc1ccc(NC(=O)NCc2ccc(C)cc2)cc1
- T/C [8]: 104 % of control
- T/C [9]: 104 % of control
- T/C [10]: 96 % of control

Compound: COc1ccc(-n2c(C)csc2=S)cc1
- T/C [13]: 94 % of control
- T/C [14]: 97 % of control

Compound: CNC(=S)N/N=C/c1ccc([N+](=O)[O-])s1
- T/C [13]: 90 % of control
- T/C [14]: 90 % of control
- T/C [15]: 89 % of control

Compound: Nc1cc(Cl)cc2cc(Br)cnc12
- T/C [2]: 101 % of control
- T/C [4]: 98 % of control
- T/C [6]: 95 % of control

Compound: CCC(CC)C(O)(C(=O)O)C(CC)CC
- T/C [20]: 95 % of control
- T/C [21]: 89 % of control
- T/C [22]: 97 % of control

Compound: COc1ccc([N+](=O)[O-])c(O)c1C
- T/C [16]: 90 % of control
- T/C [17]: 96 % of control
- T/C [23]: 106 % of control

Compound: O=C1C(=O)c2ccccc2C(O)=C1Sc1ccc(Cl)cc1
- T/C [24]: 103 % of control
- T/C (dose: 150.0 mg/kg/injection, schedule: Q01DX001 (ip), vehicle: carboxymethylcellulose (CMC)): 98 % of control
- T/C (dose: 300.0 mg/kg/injection, schedule: Q01DX001 (ip), vehicle: carboxymethylcellulose (CMC)): 98 % of control

Compound: COC(=O)C(C)(OC)OC
- T/C [12]: 104 % of control
- T/C [2]: 96 % of control
- T/C [25]: 112 % of control
- T/C [4]: 100 % of control
- T/C [26]: 105 % of control
- T/C [6]: 96 % of control

Compound: O=C(Nc1ccccc1C(=O)N/N=C/CCc1ccccc1)c1ccccc1Cl
- T/C [1]: 101 % of control
- T/C [3]: 97 % of control
- T/C [5]: 92 % of control

Compound: CCOC(=O)C1(O)c2ccccc2NC(=S)N1CC(Br)CBr (stereo not given)
- T/C [12]: 100 % of control
- T/C (dose: 100.0 mg/kg/injection, schedule: Q04DX002 (ip), vehicle: saline): 90 % of control
- T/C [25]: 93 % of control
- T/C (dose: 200.0 mg/kg/injection, schedule: Q04DX002 (ip), vehicle: saline): 97 % of control
- T/C [26]: 102 % of control
- T/C (dose: 400.0 mg/kg/injection, schedule: Q04DX002 (ip), vehicle: saline): 103 % of control

Compound: CC(=O)Oc1ccc2c3c(cccc13)CC2
- T/C [16]: 97 % of control
- T/C [17]: 96 % of control
- T/C [23]: 92 % of control

Compound: CCCCOB(OCCCC)c1ccc(B(OCCCC)OCCCC)cc1
- T/C [20]: 97 % of control
- T/C [21]: 101 % of control
- T/C [22]: 89 % of control

Compound: CC(N)c1ccccc1Cl (stereo not given)
- T/C (dose: 12.5 mg/kg/injection, schedule: Q04DX003 (ip), vehicle: saline): 107 % of control
- T/C [27]: 96 % of control
- T/C [28]: 96 % of control

Compound: CC(=O)Oc1ccc(OC(C)=O)c2cc3ccccc3cc12
- T/C (dose: 100.0 mg/kg/injection, schedule: Q01DX001 (ip), vehicle: carboxymethylcellulose (CMC)): 87 % of control
- T/C (dose: 200.0 mg/kg/injection, schedule: Q01DX001 (ip), vehicle: carboxymethylcellulose (CMC)): 93 % of control
- T/C (dose: 400.0 mg/kg/injection, schedule: Q01DX001 (ip), vehicle: carboxymethylcellulose (CMC)): 91 % of control

Compound: CCCC(CCC)=NCCN=C(CCC)CCC
- T/C [12]: 97 % of control
- T/C [25]: 94 % of control

Compound: CC(N)C(C)O (stereo not given)
- T/C [19]: 96 % of control
- T/C [29]: 101 % of control
- T/C [30]: 101 % of control

Compound: IC[P+](c1ccccc1)(c1ccccc1)c1ccccc1
- T/C [24]: 106 % of control

Compound: CCSC1OC(C(COC(C)=O)OC(C)=O)C(OC(C)=O)C1NC(=O)OCc1ccccc1 (stereo not given)
- T/C (dose: 50.0 mg/kg/injection, schedule: Q01DX001 (ip), vehicle: saline): 100 % of control
- T/C [20]: 97 % of control
- T/C [21]: 97 % of control
- T/C [22]: 91 % of control

Compound: CC(C)(C)NC(=O)NCC1CCCC1NC(=O)NC(C)(C)C (stereo not given)
- T/C [8]: 92 % of control
- T/C [9]: 99 % of control
- T/C [10]: 92 % of control

Compound: COc1cc(C(O)CN)cc(OC)c1OC (stereo not given)
- T/C (dose: 25.0 mg/kg/injection, schedule: Q01DX009 (ip), vehicle: saline): 100 % of control
- T/C [27]: 88 % of control
- T/C [11]: 94 % of control
- T/C [28]: 94 % of control
- T/C [12]: 104 % of control
- T/C [19]: 88 % of control
- T/C [25]: 110 % of control
- T/C [29]: 94 % of control
- T/C [30]: 91 % of control

Compound: N#Cc1nc2c(n(O)c1=N)CCC/C2=C\c1ccccc1
- T/C [7]: 103 % of control
- T/C [1]: 103 % of control
- T/C [3]: 93 % of control
